From US20230322723A1, “COMPOUNDS FOR SUPPRESSING EGFR MUTANT CANCER AND PHARMACEUTICAL USE THEREOF” (J2H BIOTECH INC., priority 2020, published 2023)

Columns and labels:
[1] = test system: EGFR^del19+T790M+C797S; assay: EGFR protein degradation test (Western blot) in Ba/F3 cells expressing mutant EGFR del19+T790M+C797S (DTC); type: cell-based; conditions: compounds at 0.1 μM and 1 μM, 24 hours, Western blot with EGFR antibody
Method: (§1) The ability of the compounds of the present invention to degrade the mutant EGFR protein was confirmed in Ba/F3 cells expressing normal EGFR, mutant EGFR^del19+T790M+C797S or mutant EGFR^L858R+T790M+C797S. A Western blot test using the EGFR antibody was performed.
(§2) Specifically, Ba/F3 cells expressing EGFR were cultured in RPMI 1640 (Gibco, NY, USA) containing 10% fetal bovine serum (FBS, Gibco, NY, USA). Cells expressing normal EGFR, mutant EGFR^del19+T790M+C797S or mutant EGFR^L858R+T790M+C797S were treated with the compounds of the present invention at concentrations of 0.1 μM and 1 μM, respectively, for 24 hours. After that, it was washed twice with phosphate buffered saline (PBS) and SDS-PAGE was performed with 30 μg of cell lysate. After the protein separated on the gel was transferred to a nitrocellulose membrane, the expression level of the EGFR protein was confirmed using an EGFR antibody (Santa Cruz biotechnology, Santacruz, CA, USA). EGFR bands separated by Western blotting were quantitatively analyzed with Fluo-S MultiImager (Bio-Rad, Hercules, CA, USA).

[2] = target: T1, EGFR^L858R+T790M+C797S (Homo sapiens, UniProt P00533, C797S/L858R/T790M); assay: EGFR protein degradation test (Western blot) in Ba/F3 cells expressing mutant EGFR L858R+T790M+C797S (LTC); type: cell-based; conditions: compounds at 0.1 μM and 1 μM, 24 hours, Western blot with EGFR antibody
T1 construct: expressed in transfected cells; host or cells: Ba/F3
T1 sequence (P00533 25-1210 T790M/C797S/L858R): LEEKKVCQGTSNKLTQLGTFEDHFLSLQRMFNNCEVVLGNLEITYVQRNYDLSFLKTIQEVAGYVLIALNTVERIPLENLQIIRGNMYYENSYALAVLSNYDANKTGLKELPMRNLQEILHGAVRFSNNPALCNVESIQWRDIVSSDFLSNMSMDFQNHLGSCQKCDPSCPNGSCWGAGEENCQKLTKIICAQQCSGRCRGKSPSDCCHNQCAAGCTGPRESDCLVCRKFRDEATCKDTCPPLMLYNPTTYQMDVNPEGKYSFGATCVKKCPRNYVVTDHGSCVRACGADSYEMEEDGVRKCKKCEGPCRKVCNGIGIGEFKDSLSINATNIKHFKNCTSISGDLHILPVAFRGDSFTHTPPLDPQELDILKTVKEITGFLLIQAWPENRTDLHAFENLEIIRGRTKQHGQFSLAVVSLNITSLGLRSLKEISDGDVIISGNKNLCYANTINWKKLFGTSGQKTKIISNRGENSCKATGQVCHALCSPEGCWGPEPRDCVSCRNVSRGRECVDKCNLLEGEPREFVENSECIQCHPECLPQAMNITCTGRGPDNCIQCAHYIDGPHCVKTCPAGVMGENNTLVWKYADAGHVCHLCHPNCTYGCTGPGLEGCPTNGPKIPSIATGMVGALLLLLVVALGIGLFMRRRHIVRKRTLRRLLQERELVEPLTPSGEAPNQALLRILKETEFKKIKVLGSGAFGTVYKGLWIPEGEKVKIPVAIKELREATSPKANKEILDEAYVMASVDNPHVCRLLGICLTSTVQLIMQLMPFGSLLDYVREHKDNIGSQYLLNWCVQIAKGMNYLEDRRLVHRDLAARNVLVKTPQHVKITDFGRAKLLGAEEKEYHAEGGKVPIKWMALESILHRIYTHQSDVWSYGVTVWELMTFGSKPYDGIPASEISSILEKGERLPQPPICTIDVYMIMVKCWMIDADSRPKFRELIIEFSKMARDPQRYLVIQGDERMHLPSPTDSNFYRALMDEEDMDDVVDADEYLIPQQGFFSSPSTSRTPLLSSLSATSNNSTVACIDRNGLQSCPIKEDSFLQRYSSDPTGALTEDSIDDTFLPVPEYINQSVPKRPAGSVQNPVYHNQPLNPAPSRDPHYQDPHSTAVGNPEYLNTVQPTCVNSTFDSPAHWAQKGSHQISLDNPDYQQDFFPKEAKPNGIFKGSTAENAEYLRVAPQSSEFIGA
Method: as §1, §2

Row | LTC (EGFR^L858R+T790M+C797S) protein degradation [2] | SMILES | DTC (EGFR^del19+T790M+C797S) protein degradation [1]
1 | + (Protein degradation 20~80%) | COc1cc(N2CCC3(CCN(CC(=O)N[C@H](C(=O)N4C[C@H](O)CC4C(=O)NCc4ccc(-c5scnc5C)cc4)C(C)(C)C)CC3)CC2)ccc1Nc1ncc(Cl)c(Nc2ccccc2N(C)S(C)(=O)=O)n1 (stereo in doubt) [Compound 31, (2R,4R)-1-((S)-2-(2-(9-(4-((5-chloro-4-((2-(N-methylmethylsulfonamido)phenyl)amino)pyrimidin-2-yl)amino)-3-methoxyphenyl)-3,9-diazaspiro[5,5]undecan-3-yl)acetamido)-3,3-dimethylbutanoyl)-4-hydroxy-N-(4-(4-methylthiazol-5-yl)benzyl)pyrrolidin-2-carboxamide] | ++ (Protein degradation > 80%)
2 | − (Protein degradation < 20%) | COc1cc(N2CCN(CC3CCN(CC(=O)N[C@H](C(=O)N4C[C@H](O)CC4C(=O)NCc4ccc(-c5scnc5C)cc4)C4CC4)CC3)CC2)ccc1Nc1ncc(Cl)c(Nc2ccccc2N(C)S(C)(=O)=O)n1 (stereo in doubt) [Compound 55, (2R,4R)-1-((S)-2-(2-(4-((4-(4-((5-chloro-4-((2-(N-methylmethylsulfonamido)phenyl)amino)pyrimidin-2-yl)amino)-3-methoxyphenyl)piperazin-1-yl)methyl)piperidin-1-yl)acetamido)-2-cyclopropylacetyl)-4-hydroxy-N-(4-(4-methylthiazol-5-yl)benzyl)pyrrolidin-2-carboxamide] | − (Protein degradation < 20%)
3 | − (Protein degradation < 20%) | COc1cc(N2CCN(CC3CCN(CC(=O)N[C@H](C(=O)N4C[C@H](O)CC4C(=O)NCc4ccc(-c5scnc5C)cc4)C(C)C)CC3)CC2)ccc1Nc1ncc(Cl)c(Nc2ccccc2N(C)S(C)(=O)=O)n1 (stereo in doubt) [Compound 56, (2R,4R)-1-((2-(4-((4-(4-((5-chloro-4-((2-(N-methylmethylsulfonamido)phenyl)amino)pyrimidin-2-yl)amino)-3-methoxyphenyl)piperazin-1-yl)methyl)piperidin-1-yl)acetyl)-L-valyl)-4-hydroxy-N-(4-(4-methylthiazol-5-yl)benzyl)pyrrolidin-2-carboxamide] | + (Protein degradation 20~80%)
4 | − (Protein degradation < 20%) | COc1cc(N2CCN(CCCCC(=O)Nc3cccc4c3C(=O)N(C3CCC(=O)NC3=O)C4=O)CC2)ccc1Nc1ncc(Cl)c(Nc2ccccc2N(C)S(C)(=O)=O)n1 (centres unmarked) [Compound 1, 5-(4-(4-((5-chloro-4-((2-(N-methylmethylsulfonamido)phenyl)amino)pyrimidin-2-yl)amino)-3-methoxyphenyl)piperazin-1-yl)-N-(2-(2,6-dioxopiperidin-3-yl)-1,3-dioxoisoindolin-4-yl)pentanamide] | − (Protein degradation < 20%)
5 | − (Protein degradation < 20%) | COc1cc(N2CCC(N3CCN(CCCCC(=O)Nc4cccc5c4C(=O)N(C4CCC(=O)NC4=O)C5=O)CC3)CC2)ccc1Nc1ncc(Cl)c(Nc2ccccc2N(C)S(C)(=O)=O)n1 (centres unmarked) [Compound 2, 5-(4-(1-(4-((5-chloro-4-((2-(N-methylmethylsulfonamido)phenyl)amino)pyrimidin-2-yl)amino)-3-methoxyphenyl)piperidin-4-yl)piperazin-1-yl)-N-(2-(2,6-dioxopiperidin-3-yl)-1,3-dioxoisoindolin-4-yl)pentanamide] | + (Protein degradation 20~80%)
6 | − (Protein degradation < 20%) | COc1cc(N2CCC(N(C)CCCCOc3cccc4c3C(=O)N(C3CCC(=O)NC3=O)C4=O)CC2)ccc1Nc1ncc(Cl)c(Nc2ccccc2N(C)S(C)(=O)=O)n1 (centres unmarked) [Compound 3, N-(2-((5-chloro-2-((4-(4-((4-((2-(2,6-dioxopiperidin-3-yl)-1,3-dioxoisoindolin-4-yl)oxy)butyl)(methyl)amino)piperidin-1-yl)-2-methoxyphenyl)amino)pyrimidin-4-yl)amino)phenyl)-N-methylmethanesulfonamide] | − (Protein degradation < 20%)
7 | − (Protein degradation < 20%) | COc1cc(N2CCC(N3CCN(CCCCCCCCCCC(=O)Nc4cccc5c4C(=O)N(C4CCC(=O)NC4=O)C5=O)CC3)CC2)ccc1Nc1ncc(Cl)c(Nc2ccccc2N(C)S(C)(=O)=O)n1 (centres unmarked) [Compound 5, 11-(4-(1-(4-((5-chloro-4-((2-(N-methylmethylsulfonamido)phenyl)amino)pyrimidin-2-yl)amino)-3-methoxyphenyl)piperidin-4-yl)piperazin-1-yl)-N-(2-(2,6-dioxopiperidin-3-yl)-1,3-dioxoisoindolin-4-yl)undecanamide] | − (Protein degradation < 20%)
8 | − (Protein degradation < 20%) | COc1cc(N2CCN(CCCCC(=O)N[C@H](C(=O)N3C[C@H](O)C[C@@H]3C(=O)NCc3ccc(-c4scnc4C)cc3)C(C)(C)C)CC2)ccc1Nc1ncc(Cl)c(Nc2ccccc2N(C)S(C)(=O)=O)n1 [Compound 6, (2R,4R)-1-((S)-2-(5-(4-(4-((5-chloro-4-((2-(N-methylmethylsulfonamido)phenyl)amino)pyrimidin-2-yl)amino)-3-methoxyphenyl)piperazin-1-yl)pentanamido)3,3-dimethylbutanoyl)4-hydroxy-N-(4-(4-methylthiazol-5-yl)benzyl)pyrrolidin-2-carboxamide] | + (Protein degradation 20~80%)
9 | − (Protein degradation < 20%) | COc1cc(N2CCC(N3CCN(CCCCC(=O)N[C@H](C(=O)N4C[C@H](O)C[C@@H]4C(=O)NCc4ccc(-c5scnc5C)cc4)C(C)(C)C)CC3)CC2)ccc1Nc1ncc(Cl)c(Nc2ccccc2N(C)S(C)(=O)=O)n1 [Compound 7, (2R,4R)-1-((S)-2-(5-(4-(1-(4-((5-chloro-4-((2-(N-methylmethylsulfonamido)phenyl)amino)pyrimidin-2-yl)amino)-3-methoxyphenyl)piperidin-4-yl)piperazin-1-yl)pentanamido)-3,3-dimethylbutanoyl)-4-hydroxy-N-(4-(4-methylthiazol-5-yl)benzyl)pyrrolidin-2-carboxamide] | + (Protein degradation 20~80%)
10 | − (Protein degradation < 20%) | COc1cc(N2CCN(CCOCCOCC(=O)Nc3cccc4c3C(=O)N(C3CCC(=O)NC3=O)C4=O)CC2)ccc1Nc1ncc(Cl)c(Nc2ccccc2N(C)S(C)(=O)=O)n1 (centres unmarked) [Compound 8, 2-(2-(2-(4-(4-((5-chloro-4-((2-(N-methylmethylsulfonamido)phenyl)amino)pyrimidin-2-yl)amino)-3-methoxyphenyl)piperazin-1-yl)ethoxy)ethoxy)-N-(2-(2,6-dioxopiperidin-3-yl)-1,3-dioxoisoindolin-4-yl)acetamide] | − (Protein degradation < 20%)
11 | − (Protein degradation < 20%) | COc1cc(N2CCC(N3CCN(CCOCCOCC(=O)Nc4cccc5c4C(=O)N(C4CCC(=O)NC4=O)C5=O)CC3)CC2)ccc1Nc1ncc(Cl)c(Nc2ccccc2N(C)S(C)(=O)=O)n1 (centres unmarked) [Compound 9, 2-(2-(2-(4-(1-(4-((5-chloro-4-((2-(N-methylmethylsulfonamido)phenyl)amino)pyrimidin-2-yl)amino)-3-methoxyphenyl)piperidin-4-yl)piperazin-1-yl)ethoxy)ethoxy)-N-(2-(2,6-dioxopiperidin-3-yl)-1,3-dioxoisoindolin-4-yl)acetamide] | − (Protein degradation < 20%)
12 | − (Protein degradation < 20%) | COc1cc(N2CCN(CCOCCOCC(=O)N[C@H](C(=O)N3C[C@H](O)C[C@@H]3C(=O)NCc3ccc(-c4scnc4C)cc3)C(C)(C)C)CC2)ccc1Nc1ncc(Cl)c(Nc2ccccc2N(C)S(C)(=O)=O)n1 [Compound 10, (2R,4R)-1-((S)-2-(2-(2-(2-(4-(4-((5-chloro-4-((2-(N-methylmethylsulfonamido)phenyl)amino)pyrimidin-2-yl)amino)-3-methoxyphenyl)piperazin-1-yl)ethoxy)ethoxy)acetamido)-3,3-dimethylbutanoyl)-4-hydroxy-N-(4-(4-methylthiazol-5-yl)benzyl)pyrrolidin-2-carboxamide] | − (Protein degradation < 20%)

Row | SMILES | LTC (EGFR^L858R+T790M+C797S) protein degradation [2] | DTC (EGFR^del19+T790M+C797S) protein degradation [1]
13 | COc1cc(N2CCN(CCCCCCCCCCC(=O)Nc3cccc4c3C(=O)N(C3CCC(=O)NC3=O)C4=O)CC2)ccc1Nc1ncc(Cl)c(Nc2ccccc2N(C)S(C)(=O)=O)n1 (centres unmarked) [Compound 4, 11-(4-(4-((5-chloro-4-((2-(N-methylmethylsulfonamido)phenyl)amino)pyrimidin-2-yl)amino)-3-methoxyphenyl)piperazin-1-yl)-N-(2-(2,6-dioxopiperidin-3-yl)-1,3-dioxoisoindolin-4-yl)undecanamide] | − (Protein degradation < 20%) | − (Protein degradation < 20%)
